Laboratory results reported in ChEMBL document CHEMBL3046819, “Synthesis and antimicrobial activity of new pyridine derivatives-I” (2011).

Experiments:
Format in all cases: functional
Details in all cases: read-out: IZ
Escherichia coli [1] = assay: Antibacterial activity against Escherichia coli ATCC 25922 at 200 ug/ml by cup-plate method
Escherichia coli [2] = assay: Antibacterial activity against Escherichia coli ATCC 25922 at 100 ug/ml by cup-plate method
Staphylococcus aureus [3] = assay: Antibacterial activity against Staphylococcus aureus ATCC 9144 at 200 ug/ml by cup-plate method
Candida albicans [4] = assay: Antifungal activity against Candida albicans ATCC 10231 at 100 ug/ml by cup-plate method
Candida albicans [5] = assay: Antifungal activity against Candida albicans ATCC 10231 at 200 ug/ml by cup-plate method
Pseudomonas aeruginosa [6] = assay: Antibacterial activity against Pseudomonas aeruginosa ATCC 9027 at 100 ug/ml by cup-plate method
Bacillus subtilis [7] = assay: Antibacterial activity against Bacillus subtilis ATCC 6633 at 100 ug/ml by cup-plate method
Bacillus subtilis [8] = assay: Antibacterial activity against Bacillus subtilis ATCC 6633 at 200 ug/ml by cup-plate method
Staphylococcus aureus [9] = assay: Antibacterial activity against Staphylococcus aureus ATCC 9144 at 100 ug/ml by cup-plate method
Pseudomonas aeruginosa [10] = assay: Antibacterial activity against Pseudomonas aeruginosa ATCC 9027 at 200 ug/ml by cup-plate method

Compound	zone of inhibition at 200 µg/mL (Escherichia coli [1]) [mm]	zone of inhibition at 100 µg/mL (Escherichia coli [2]) [mm]	zone of inhibition at 200 µg/mL (Staphylococcus aureus [3]) [mm]	zone of inhibition at 100 µg/mL (Candida albicans [4]) [mm]	zone of inhibition at 200 µg/mL (Candida albicans [5]) [mm]	zone of inhibition at 100 µg/mL (Pseudomonas aeruginosa [6]) [mm]	zone of inhibition at 100 µg/mL (Bacillus subtilis [7]) [mm]	zone of inhibition at 200 µg/mL (Bacillus subtilis [8]) [mm]	zone of inhibition at 100 µg/mL (Staphylococcus aureus [9]) [mm]	zone of inhibition at 200 µg/mL (Pseudomonas aeruginosa [10]) [mm]
O=C(c1cccnc1Nc1nc2ccccc2s1)N1CCNC(Cl)C1Cl (stereo not drawn)	8	7	7	3	5	4	6	7	5	5
CC1(C)S[C@@H]2[C@H](NC(=O)[C@H](N)c3ccc(O)cc3)C(=O)N2[C@H]1C(=O)O [AMOXICILLIN]	28	16	24			15	16	29	13	27
O=C(c1cccnc1Nc1nc2cc(Cl)ccc2s1)N1CCN(CCO)CC1	5	5	0	3	4	0	5	5	0	3
COc1cccc2sc(Nc3ncccc3C(=O)N3CCN(CCO)CC3)nc12	3	3	8	4	4	7	6	10	6	9
Cc1ccc2sc(Nc3ncccc3C(=O)N3CCN(CCO)CC3)nc2c1	10	6	10	1	2	5	8	8	8	6
O=C(c1cccnc1Nc1nc2c([N+](=O)[O-])cccc2s1)N1CCNC(Cl)C1Cl (stereo not drawn)	10	9	10	2	4	8	5	10	8	9
O=C(c1cccnc1Nc1nc2c(Cl)cccc2s1)N1CCNC(Cl)C1Cl (stereo not drawn)	5	4	4	3	6	3	3	6	3	3
Cc1cccc2sc(Nc3ncccc3C(=O)N3CCNC(Cl)C3Cl)nc12 (stereo not drawn)	10	8	6	0	0	6	4	4	4	7
